Assay results: US20250338857A1, “USE OF INTERFERING RNAS DIRECTED AGAINST THE CHOLINERGIC SYSTEM FOR CONTROLLING INSECT PESTS” (priority 2022, published 2025)
In brackets after ≈: the same amount, converted by molar mass.

Experiments:
aphid larvae = test: Imidacloprid concentration-effect mortality curve in aphid larvae (LC50); format: in vivo; settings: Acyrthosiphon pisum, artificial nutrition
Experimental: Mortality tests were performed using an artificial nutrition system comprising a PVC tube closed by a Parafilm® at each end, in which 5 adult aphids or 20 larvae were deposited. At one of the ends of the artificial nutrition “cell”, 200 μL of nutrient solution comprising the solution to be tested (insecticide, dsRNA) were deposited on the Parafilm then covered with a 2nd Parafilm to allow the aphids to suck the solution for feeding by piercing the Parafilm with their rostrum. The cells were placed at 20° C. in a chamber with a photoperiod of 16 h. To determine the concentration of imidacloprid leading to 50% mortality (LC50) in the aphid larvae, a concentration-effect curve was plotted at 48 h and 72 h from a range of imidacloprid concentrations from 10^−6 to 10 μg/mL.
The mortality curves were obtained with GraphPad Prism software in the form of a non-linear regression and adjusted with the Hill equation,
[formula] • where Y is the percent mortality observed at the concentration value X, m and M are respectively the minimum and maximum values of the curve, nH is the Hill coefficient and LC50 is the concentration of imidacloprid causing 50% mortality. The results are expressed as a mean±S.E.M. Type of Effect of the dsRNAs

[1] = tested on: cockroach Periplaneta americana; test: Mortality after acute imidacloprid intoxication in cockroaches exposed to a sublethal dose for 30 days; format: in vivo; settings: 0.025 μg/cockroach/day for 30 days, re-exposure 96 h

O=[N+]([O-])NC1=NCCN1Cc1ccc(Cl)nc1 [imidacloprid]
LC50 (aphid larvae; 48 h): 8 ng/mL (≈ 0.0313 µM)
LC50 (aphid larvae; 72 h): 4 ng/mL (≈ 0.0156 µM)
effect of sublethal intoxication for 30 days on sensitivity of cockroaches to acute intoxication [1]: loss of sensitivity
